Experimental data published in patent US12226401B2, “Molecular genetic approach to treatment and diagnosis of alcohol and drug dependence” (priority 2010, dated 2025).

System: alcohol dependent individuals
Test: Randomized, double-blind, placebo-controlled, 12-week clinical trial of ondansetron vs placebo in alcohol dependent individuals by genotype: drinks per drinking day (DDD)
Assay type: in vivo, human
Conditions: for Drinks per Drinking Days, Least Squares Mean (Estimated Mean): OND
Protocol: Two hundred and seventy eight male and female alcohol dependent individuals were entered into a randomized, double-blind, placebo-controlled, 12-week clinical trial. These individuals were divided into TT vs. […] The polymorphisms in 3''-UTR region of a gene may affect mRNA expression levels by altering their stability. […] Data was transformed to its natural log to correct for skewness. […] In total, ten SNPs in 5HT3a and nine SNPs in 5HT3b genes were analyzed in this study: […]

## Cc1nccn1CC1CCc2c(c3ccccc3n2C)C1=O (stereo not drawn) [ondansetron, 9-methyl-3-[(2-methyl-1H-imidazol-1-yl)methyl]-1,2,3,9-tetrahydrocarbazol-4-one]
AA or AC (RS1176719, RS17614942)
  Estimate, OND vs. Placebo, drinks per drinking days (DDD): −2.83 DDD
AG or AC (RS1150226, RS17614942)
  Estimate, OND vs. Placebo, drinks per drinking days (DDD): −2.12 DDD
AG or GG (RS1150226, RS1176713)
  Estimate, OND vs. Placebo, drinks per drinking days (DDD): −2.43 DDD
Among Comb (LL + TT or AC or AG)
  Least Squares Mean Difference, Drinks per Drinking Days, OND vs. Placebo: −1.75
Among OND, Comb = LL + TT or AC or AG
  Least Squares Mean Difference, Drinks per Drinking Days, Comb vs. Others: −2.21
Among OND, RS1150226
  Least Squares Mean Difference, Drinks per Drinking Days, AG/AA vs. GG: −1.91
Among OND, RS17614942
  Least Squares Mean Difference, Drinks per Drinking Days, AC/AA vs. CC: −2.13
Among OND, model RS17614942 (CC/AA, AC), Table 2G
  Least Squares Mean Difference, Drinks per Drinking Days, AC/AA vs. CC: −2.22
Among RS1150226 AG/AA
  Least Squares Mean Difference, Drinks per Drinking Days, OND vs. Placebo: −1.80
Among RS17614942 AC/AA
  Least Squares Mean Difference, Drinks per Drinking Days, OND vs. Placebo: −2.51
Comb (LL + TT or AC or AG)
  Least Squares Mean, Drinks per Drinking Days: 4.21
GG or AC (RS1176713, RS17614942)
  Estimate, OND vs. Placebo, drinks per drinking days (DDD): −3.08 DDD
LL + AA (5-HTTLPR, RS1176719)
  Estimate, OND vs. Placebo, drinks per drinking days (DDD): −5.22 DDD
LL + AA + AC (5-HTTLPR, RS1176719, RS17614942)
  Estimate, OND vs. Placebo, drinks per drinking days (DDD): −5.96 DDD
LL + AC (5-HTTLPR, RS17614942)
  Estimate, OND vs. Placebo, drinks per drinking days (DDD): −4.24 DDD
LL + AG (5-HTTLPR, RS1150226)
  Estimate, OND vs. Placebo, drinks per drinking days (DDD): −3.06 DDD
LL + AG + AC (5-HTTLPR, RS1150226, RS17614942)
  Estimate, OND vs. Placebo, drinks per drinking days (DDD): −4.09 DDD
LL + CT/TT: OND vs. Placebo, simplified model
  Drinks per Drinking Days, Least Squares Estimated Mean Difference: −1.55
LL + GG (5-HTTLPR, RS1176713)
  Estimate, OND vs. Placebo, drinks per drinking days (DDD): −4.48 DDD
LL + TT (5-HTTLPR, RS1042173)
  Estimate, OND vs. Placebo, drinks per drinking days (DDD): −2.08 DDD
LL + TT + AA (5-HTTLPR, RS1042173, RS1176719)
  Estimate, OND vs. Placebo, drinks per drinking days (DDD): −8.50 DDD
LL or AA or AC (5-HTTLPR, RS1176719, RS17614942)
  Estimate, OND vs. Placebo, drinks per drinking days (DDD): −1.55 DDD
LL or AC (5-HTTLPR, RS17614942)
  Estimate, OND vs. Placebo, drinks per drinking days (DDD): −1.53 DDD
LL or AG (5-HTTLPR, RS1150226)
  Estimate, OND vs. Placebo, drinks per drinking days (DDD): −1.37 DDD
LL or AG or AC (5-HTTLPR, RS1150226, RS17614942)
  Estimate, OND vs. Placebo, drinks per drinking days (DDD): −1.43 DDD
LL or GG (5-HTTLPR, RS1176713)
  Estimate, OND vs. Placebo, drinks per drinking days (DDD): −1.60 DDD
LL or GG or AC (5-HTTLPR, RS1176713, RS17614942)
  Estimate, OND vs. Placebo, drinks per drinking days (DDD): −1.57 DDD
LL or TT (5-HTTLPR, RS1042173)
  Estimate, OND vs. Placebo, drinks per drinking days (DDD): −0.87 DDD
LL or TT or AA (5-HTTLPR, RS1042173, RS1176719)
  Estimate, OND vs. Placebo, drinks per drinking days (DDD): −0.99 DDD
LL or TT or AA or AC (5-HTTLPR, RS1042173, RS1176719, RS17614942)
  Estimate, OND vs. Placebo, drinks per drinking days (DDD): −1.02 DDD
LL or TT or AC (5-HTTLPR, RS1042173, RS17614942)
  Estimate, OND vs. Placebo, drinks per drinking days (DDD): −0.97 DDD
LL or TT or AG (5-HTTLPR, RS1042173, RS1150226)
  Estimate, OND vs. Placebo, drinks per drinking days (DDD): −0.94 DDD
LL or TT or AG or AC (5-HTTLPR, RS1042173, RS1150226, RS17614942)
  Estimate, OND vs. Placebo, drinks per drinking days (DDD): −0.93 DDD
LL or TT or GG (5-HTTLPR, RS1042173, RS1176713)
  Estimate, OND vs. Placebo, drinks per drinking days (DDD): −0.94 DDD
LL+AC/AA (5HTTLPR + rs17614942)
  Reduction of DDD by ondansetron, carriers vs non-carriers of genotype combination: 3.33 sd
LL+CT/TT (5HTTLPR + rs4938056)
  Reduction of DDD by ondansetron, carriers vs non-carriers of genotype combination: 1.82 sd
OND vs. Placebo, all genotypes, model RS17614942
  Drinks per Drinking Days, Least Squares Estimated Mean Difference: −0.96
OND vs. Placebo, all genotypes, model RS17614942 and 5-HTTLPR
  Drinks per Drinking Days, Least Squares Estimated Mean Difference: −1.13
5-HTTLPR LL, model 5-HTTLPR and RS1062613
  Drinks per Drinking Days, Least Squares Mean (Estimated Mean): 4.80
5-HTTLPR LL, model 5-HTTLPR and RS1150226
  Drinks per Drinking Days, Least Squares Mean (Estimated Mean): 4.59
5-HTTLPR LL, model RS4938056 and 5-HTTLPR
  Drinks per Drinking Days, Least Squares Mean (Estimated Mean): 5.18
5-HTTLPR LL, model RS17614942 and 5-HTTLPR
  Drinks per Drinking Days, Least Squares Mean (Estimated Mean): 4.43
5-HTTLPR LS/SS, model 5-HTTLPR and RS1062613
  Drinks per Drinking Days, Least Squares Mean (Estimated Mean): 6.19
5-HTTLPR LS/SS, model 5-HTTLPR and RS1150226
  Drinks per Drinking Days, Least Squares Mean (Estimated Mean): 5.86
5-HTTLPR LS/SS, model RS4938056 and 5-HTTLPR
  Drinks per Drinking Days, Least Squares Mean (Estimated Mean): 6.54
5-HTTLPR LS/SS, model RS17614942 and 5-HTTLPR
  Drinks per Drinking Days, Least Squares Mean (Estimated Mean): 5.76
LL + CT/TT, simplified model
  Drinks per Drinking Days, Least Squares Mean (Estimated Mean): 4.61
Others (not LL + CT/TT), simplified model
  Drinks per Drinking Days, Least Squares Mean (Estimated Mean): 6.25
RS1062613 TC/CC, model 5-HTTLPR and RS1062613
  Drinks per Drinking Days, Least Squares Mean (Estimated Mean): 4.98
RS1062613 TC/CC, model RS1062613
  Drinks per Drinking Days, Least Squares Mean (Estimated Mean): 5.13
RS1062613 TT, model 5-HTTLPR and RS1062613
  Drinks per Drinking Days, Least Squares Mean (Estimated Mean): 6.02
RS1062613 TT, model RS1062613
  Drinks per Drinking Days, Least Squares Mean (Estimated Mean): 6.19
RS1150226 AG/AA, model 5-HTTLPR and RS1150226
  Drinks per Drinking Days, Least Squares Mean (Estimated Mean): 4.60
RS1150226 AG/AA, model RS1150226
  Drinks per Drinking Days, Least Squares Mean (Estimated Mean): 4.58
RS1150226 GG, model 5-HTTLPR and RS1150226
  Drinks per Drinking Days, Least Squares Mean (Estimated Mean): 5.85
RS1150226 GG, model RS1150226
  Drinks per Drinking Days, Least Squares Mean (Estimated Mean): 6.04
RS4938056 CC, model RS4938056
  Drinks per Drinking Days, Least Squares Mean (Estimated Mean): 6.67
RS4938056 CC, model RS4938056 and 5-HTTLPR
  Drinks per Drinking Days, Least Squares Mean (Estimated Mean): 6.42
RS4938056 CT/TT, model RS4938056
  Drinks per Drinking Days, Least Squares Mean (Estimated Mean): 5.43
RS4938056 CT/TT, model RS4938056 and 5-HTTLPR
  Drinks per Drinking Days, Least Squares Mean (Estimated Mean): 5.29
RS17614942 AC/AA, model RS17614942
  Drinks per Drinking Days, Least Squares Mean (Estimated Mean): 4.40
RS17614942 AC/AA, model RS17614942 and 5-HTTLPR
  Drinks per Drinking Days, Least Squares Mean (Estimated Mean): 4.37
RS17614942 CC, model RS17614942
  Drinks per Drinking Days, Least Squares Mean (Estimated Mean): 6.00
RS17614942 CC, model RS17614942 and 5-HTTLPR
  Drinks per Drinking Days, Least Squares Mean (Estimated Mean): 5.82
All genotypes, model 5-HTTLPR and RS1062613
  Drinks per Drinking Days, Least Squares Mean (Estimated Mean): 5.50
All genotypes, model 5-HTTLPR and RS1150226
  Drinks per Drinking Days, Least Squares Mean (Estimated Mean): 5.23
All genotypes, model RS1062613
  Drinks per Drinking Days, Least Squares Mean (Estimated Mean): 5.66
All genotypes, model RS1150226
  Drinks per Drinking Days, Least Squares Mean (Estimated Mean): 5.31
All genotypes, model RS4938056
  Drinks per Drinking Days, Least Squares Mean (Estimated Mean): 6.05
All genotypes, model RS4938056 and 5-HTTLPR
  Drinks per Drinking Days, Least Squares Mean (Estimated Mean): 5.86
All genotypes, model RS17614942
  Drinks per Drinking Days, Least Squares Mean (Estimated Mean): 5.20
All genotypes, model RS17614942 and 5-HTTLPR
  Drinks per Drinking Days, Least Squares Mean (Estimated Mean): 5.09
All genotypes, simplified model, combined genotype LL + CT/TT vs Others
  Drinks per Drinking Days, Least Squares Mean (Estimated Mean): 5.43
Others (not LL + TT or AC or AG)
  Least Squares Mean, Drinks per Drinking Days: 6.42
RS1042173 (TT)
  Estimate, OND vs. Placebo, drinks per drinking days (DDD): −0.86 DDD
RS1150226 AG (as printed, Table 3F)
  Least Squares Mean, Drinks per Drinking Days: 6.08
RS1150226 AG/AA
  Least Squares Mean, Drinks per Drinking Days: 4.20
RS1150226 GG
  Least Squares Mean, Drinks per Drinking Days: 6.11
RS1150226 GG/AA (as printed, Table 3F)
  Least Squares Mean, Drinks per Drinking Days: 4.19
RS17614942 AC
  Least Squares Mean, Drinks per Drinking Days: 3.87
RS17614942 AC/AA
  Least Squares Mean, Drinks per Drinking Days: 3.90
